In the NIST ThermoML archive (doi:10.1016/j.jct.2015.08.033):
Numbers after ± are expanded uncertainties.

How the values were obtained:
[1] = 100 kPa, Liquid; for speed of sound: Frequency=3 MHz, Sing-around technique in a fixed-path interferometer; for mass density: Vibrating tube method
[2] = mn = molality of the nth substance listed, in mol/kg; details: 100 kPa, Liquid, m2 = 0; for speed of sound: Frequency=3 MHz, Sing-around technique in a fixed-path interferometer; for mass density: Vibrating tube method

| SMILES | speed of sound ([1]; 298.15 K) | mass density ([1]; 298.15 K) | speed of sound ([1]; 303.15 K) | mass density ([1]; 303.15 K) | speed of sound ([1]; 308.15 K) | mass density ([1]; 308.15 K) | speed of sound ([1]; 313.15 K) | mass density ([1]; 313.15 K) | speed of sound ([1]; 318.15 K) | mass density ([1]; 318.15 K) | speed of sound ([2]; 298.15 K) | mass density ([2]; 298.15 K) | speed of sound ([2]; 303.15 K) | mass density ([2]; 303.15 K) | speed of sound ([2]; 308.15 K) | mass density ([2]; 308.15 K) | speed of sound ([2]; 313.15 K) | mass density ([2]; 313.15 K) | speed of sound ([2]; 318.15 K) | mass density ([2]; 318.15 K) |
| --- | --- | --- | --- | --- | --- | --- | --- | --- | --- | --- | --- | --- | --- | --- | --- | --- | --- | --- | --- | --- |
| CC(=O)N(C)C [N,N-dimethylethanamide] | 1455.8 ± 1.3 m/s | 936.281 ± 0.14 kg/m3 | 1436 ± 1.3 m/s | 931.672 ± 0.14 kg/m3 | 1416.1 ± 1.3 m/s | 927.055 ± 0.14 kg/m3 | 1396.5 ± 1.3 m/s | 922.422 ± 0.14 kg/m3 | 1376.9 ± 1.3 m/s | 917.788 ± 0.14 kg/m3 |  |  |  |  |  |  |  |  |  |  |
| CN(C)C=O [dimethylformamide] + O=S(=O)([O-])C(F)(F)F.O=S(=O)([O-])C(F)(F)F.[Mg+2] |  |  |  |  |  |  |  |  |  |  | 1457.1 ± 1.3 m/s | 943.905 ± 0.43 kg/m3 | 1437.9 ± 1.3 m/s | 939.125 ± 0.43 kg/m3 | 1418.5 ± 1.3 m/s | 934.34 ± 0.43 kg/m3 | 1399.2 ± 1.3 m/s | 929.543 ± 0.43 kg/m3 | 1380 ± 1.3 m/s | 924.732 ± 0.43 kg/m3 |
| CN(C)C=O [dimethylformamide] + O=S(=O)([O-])C(F)(F)F.O=S(=O)([O-])C(F)(F)F.[Ca+2] |  |  |  |  |  |  |  |  |  |  | 1457.2 ± 1.3 m/s | 943.915 ± 0.44 kg/m3 | 1437.9 ± 1.3 m/s | 939.142 ± 0.44 kg/m3 | 1418.5 ± 1.3 m/s | 934.356 ± 0.45 kg/m3 | 1399.2 ± 1.3 m/s | 929.553 ± 0.45 kg/m3 | 1380 ± 1.3 m/s | 924.746 ± 0.45 kg/m3 |
| CC(=O)N(C)C [N,N-dimethylethanamide] + O=S(=O)([O-])C(F)(F)F.O=S(=O)([O-])C(F)(F)F.[Sr+2] |  |  |  |  |  |  |  |  |  |  | 1455.9 ± 1.3 m/s | 936.29 ± 0.52 kg/m3 | 1435.9 ± 1.3 m/s | 931.679 ± 0.52 kg/m3 | 1416.1 ± 1.3 m/s | 927.058 ± 0.52 kg/m3 | 1396.5 ± 1.3 m/s | 922.423 ± 0.52 kg/m3 | 1376.9 ± 1.3 m/s | 917.79 ± 0.52 kg/m3 |
| CN(C)C=O [dimethylformamide] + O=S(=O)([O-])C(F)(F)F.O=S(=O)([O-])C(F)(F)F.[Sr+2] |  |  |  |  |  |  |  |  |  |  | 1457.2 ± 1.3 m/s | 943.913 ± 0.51 kg/m3 | 1438 ± 1.3 m/s | 939.144 ± 0.51 kg/m3 | 1418.6 ± 1.3 m/s | 934.36 ± 0.51 kg/m3 | 1399.3 ± 1.3 m/s | 929.56 ± 0.51 kg/m3 | 1380.1 ± 1.3 m/s | 924.748 ± 0.51 kg/m3 |
| CC(=O)N(C)C [N,N-dimethylethanamide] + O=S(=O)([O-])C(F)(F)F.O=S(=O)([O-])C(F)(F)F.[Ca+2] |  |  |  |  |  |  |  |  |  |  | 1455.7 ± 1.3 m/s | 936.279 ± 0.45 kg/m3 | 1435.9 ± 1.3 m/s | 931.67 ± 0.45 kg/m3 | 1416.1 ± 1.3 m/s | 927.058 ± 0.45 kg/m3 | 1396.5 ± 1.3 m/s | 922.429 ± 0.45 kg/m3 | 1376.9 ± 1.3 m/s | 917.793 ± 0.45 kg/m3 |
| CN(C)C=O [dimethylformamide] | 1457.2 ± 1.3 m/s | 943.913 ± 0.14 kg/m3 | 1437.9 ± 1.3 m/s | 939.139 ± 0.14 kg/m3 | 1418.5 ± 1.3 m/s | 934.354 ± 0.14 kg/m3 | 1399.3 ± 1.3 m/s | 929.554 ± 0.14 kg/m3 | 1380 ± 1.3 m/s | 924.744 ± 0.14 kg/m3 |  |  |  |  |  |  |  |  |  |  |
| CC(=O)N(C)C [N,N-dimethylethanamide] + [Ba+2].[O-][Cl+3]([O-])([O-])[O-].[O-][Cl+3]([O-])([O-])[O-] |  |  |  |  |  |  |  |  |  |  | 1455.9 ± 1.3 m/s | 936.277 ± 0.54 kg/m3 | 1436 ± 1.3 m/s | 931.67 ± 0.54 kg/m3 | 1416.2 ± 1.3 m/s | 927.058 ± 0.54 kg/m3 | 1396.5 ± 1.3 m/s | 922.423 ± 0.54 kg/m3 | 1376.9 ± 1.3 m/s | 917.79 ± 0.55 kg/m3 |
| CC(=O)N(C)C [N,N-dimethylethanamide] + O=S(=O)([O-])C(F)(F)F.O=S(=O)([O-])C(F)(F)F.[Mg+2] |  |  |  |  |  |  |  |  |  |  | 1455.9 ± 1.3 m/s | 936.279 ± 0.46 kg/m3 | 1436 ± 1.3 m/s | 931.67 ± 0.46 kg/m3 | 1416.2 ± 1.3 m/s | 927.047 ± 0.46 kg/m3 | 1396.5 ± 1.3 m/s | 922.416 ± 0.46 kg/m3 | 1376.9 ± 1.3 m/s | 917.78 ± 0.46 kg/m3 |
| CN(C)C=O [dimethylformamide] + [Ba+2].[O-][Cl+3]([O-])([O-])[O-].[O-][Cl+3]([O-])([O-])[O-] |  |  |  |  |  |  |  |  |  |  | 1457.2 ± 1.3 m/s | 943.919 ± 0.54 kg/m3 | 1437.8 ± 1.3 m/s | 939.144 ± 0.54 kg/m3 | 1418.5 ± 1.3 m/s | 934.36 ± 0.55 kg/m3 | 1399.2 ± 1.3 m/s | 929.56 ± 0.55 kg/m3 | 1380 ± 1.3 m/s | 924.748 ± 0.55 kg/m3 |
